Values of other authors, collected in patent US11142559B2, “Glucagon derivative, conjugate thereof, composition comprising same, and therapeutic use thereof” (HANMI PHARM. CO., LTD, priority 2016, dated 2021).

Conditions: when taken for one year, according to a report

Structure (SMILES): CCCCCCCCCCC[C@@H](C[C@@H]1OC(=O)[C@H]1CCCCCC)OC(=O)[C@H](CC(C)C)NC=O [Orlistat]
- weight loss: about 4 kg
